From patent publication US9796706B2, “Inhibitors of Jun N-terminal kinase” (IMAGO PHARMACEUTICALS, INC., priority 2009, dated 2017) come the findings set out here.

Type in all cases: biochemical
Common to all, as to conditions: procedures of Example 14 (TR-FRET)
(In general: In TR-FRET formats the signal depends on donor and acceptor labels being close together.)

One test has as its target JNK3 (Homo sapiens (Human), UniProt P53779). The test can be described thus: JNK3 TR-FRET kinase assay (Example 14). In short, it runs like this:
(§1)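 Two TR-FRET formats were used for each JNK isoform. In the direct one, preactivated aJNK phosphorylated EPIW-1 at about 1 mM final ATP (RT, 15 min). Both were EDTA-quenched and read by HTRF.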

Another test deals with JNK1 (Homo sapiens (Human), UniProt P45983). As to the kind of experiment: JNK1 TR-FRET kinase assay (Example 14). In short, it runs like this:
as §1

Another test addresses JNK2 (Homo sapiens (Human), UniProt P45984). As to the kind of experiment: JNK2 TR-FRET kinase assay (Example 14). In outline: as §1

Chain of JNK3 (P53779 whole entry, species assumed, canonical isoform): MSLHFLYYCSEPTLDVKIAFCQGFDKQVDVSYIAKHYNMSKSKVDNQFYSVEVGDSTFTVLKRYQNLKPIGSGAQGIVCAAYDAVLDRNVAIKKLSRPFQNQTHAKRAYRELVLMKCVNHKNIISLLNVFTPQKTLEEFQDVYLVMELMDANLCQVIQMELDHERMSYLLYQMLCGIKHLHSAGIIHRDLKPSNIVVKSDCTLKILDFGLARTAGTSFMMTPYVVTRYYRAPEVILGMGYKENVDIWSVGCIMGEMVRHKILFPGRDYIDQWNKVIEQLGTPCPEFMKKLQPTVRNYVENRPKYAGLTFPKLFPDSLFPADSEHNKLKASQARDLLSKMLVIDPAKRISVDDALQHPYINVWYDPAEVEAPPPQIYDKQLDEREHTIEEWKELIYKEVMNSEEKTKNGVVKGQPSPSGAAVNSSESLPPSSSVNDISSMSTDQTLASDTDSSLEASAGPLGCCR
Chain of JNK1 (P45983 other isoform, or with tags, fused parts or gaps isoform P45983-2, species assumed): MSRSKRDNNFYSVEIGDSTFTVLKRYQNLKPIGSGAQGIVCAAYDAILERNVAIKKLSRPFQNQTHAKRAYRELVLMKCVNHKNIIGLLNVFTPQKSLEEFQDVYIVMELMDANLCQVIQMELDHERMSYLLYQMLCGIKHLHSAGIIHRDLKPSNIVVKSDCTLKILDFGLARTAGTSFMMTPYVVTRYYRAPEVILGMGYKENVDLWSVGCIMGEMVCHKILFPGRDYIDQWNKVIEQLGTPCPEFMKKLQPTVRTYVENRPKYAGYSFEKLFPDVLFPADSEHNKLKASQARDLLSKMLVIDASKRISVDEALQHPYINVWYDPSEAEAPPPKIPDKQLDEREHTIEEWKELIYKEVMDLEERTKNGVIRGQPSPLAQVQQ
Chain of JNK2 (P45984 whole entry, species assumed): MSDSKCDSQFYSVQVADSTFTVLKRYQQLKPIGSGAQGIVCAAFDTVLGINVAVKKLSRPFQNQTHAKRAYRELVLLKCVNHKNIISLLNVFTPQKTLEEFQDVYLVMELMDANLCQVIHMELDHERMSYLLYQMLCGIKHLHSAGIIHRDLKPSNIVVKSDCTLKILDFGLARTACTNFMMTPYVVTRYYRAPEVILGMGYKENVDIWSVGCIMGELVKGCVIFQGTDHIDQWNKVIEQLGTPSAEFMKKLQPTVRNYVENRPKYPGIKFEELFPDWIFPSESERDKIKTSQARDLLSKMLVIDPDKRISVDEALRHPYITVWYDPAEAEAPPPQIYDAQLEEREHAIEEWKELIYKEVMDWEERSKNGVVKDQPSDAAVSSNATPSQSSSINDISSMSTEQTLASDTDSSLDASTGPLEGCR

As for `O=C(Cc1cc2ncccc2cc1F)Nc1scc(Br)c1-c1ncn[nH]1` [N-(4-bromo-3-(1H-1,2,4-triazol-5-yl)thiophen-2-yl)-2-(6-fluoroquinolin-7-yl)acetamide], the values for the IC50 against JNK3, against JNK1 and against JNK2 were 0.1 to 10 µM, < 0.1 µM and 0.1 to 10 µM, respectively.
Take `Cc1cn2c(CC(=O)Nc3scc(Br)c3-c3ncn[nH]3)csc2n1` [N-(4-bromo-3-(1H-1,2,4-triazol-5-yl)thiophen-2-yl)-2-(6-methylimidazo[2,1-b]thiazol-3-yl)acetamide]: the half-maximal inhibitory concentration (IC50) was 0.1 to 10 µM at JNK3, < 0.1 µM against JNK1 and 0.1 to 10 µM at JNK2.
Consider `O=C(CN1C(=O)CCc2ccc(Cl)cc21)Nc1scc(Br)c1-c1ncn[nH]1` [N-(4-bromo-3-(1H-1,2,4-triazol-5-yl)thiophen-2-yl)-2-(7-chloro-2-oxo-3,4-dihydroquinolin-1(2H)-yl)acetamide], for which the concentration for half-maximal inhibition (IC50) at JNK3, against JNK1 and on JNK2 was < 0.1 µM each time.
Consider `N#Cc1ccc2ccc(=O)n(CC(=O)Nc3scc(Br)c3-c3ncn[nH]3)c2c1` [N-(4-bromo-3-(1H-1,2,4-triazol-5-yl)thiophen-2-yl)-2-(7-cyano-2-oxoquinolin-1(2H)-yl)acetamide], for which the IC50 on JNK3, at JNK1 and at JNK2 was < 0.1 µM throughout.
For the molecule `O=C(Cn1c(=O)ccc2cc(C(F)(F)F)c(F)cc21)Nc1scc(Br)c1-c1ncn[nH]1` [N-(4-bromo-3-(1H-1,2,4-triazol-5-yl)thiophen-2-yl)-2-(7-fluoro-2-oxo-6-(trifluoromethyl)quinolin-1(2H)-yl)acetamide], the IC50 on JNK3, against JNK1 and at JNK2 was < 0.1 µM throughout.
Regarding `O=C(Cn1c(=O)ccc2ccc(F)cc21)Nc1scc(Br)c1-c1ncn[nH]1` [N-(4-bromo-3-(1H-1,2,4-triazol-5-yl)thiophen-2-yl)-2-(7-fluoro-2-oxoquinolin-1(2H)-yl)acetamide], the IC50 against JNK3, against JNK1 and at JNK2 was < 0.1 µM each time.
Turning to `O=C(Cc1cc(F)cc2ncccc12)Nc1scc(Br)c1-c1ncn[nH]1` [N-(4-bromo-3-(1H-1,2,4-triazol-5-yl)thiophen-2-yl)-2-(7-fluoroquinolin-5-yl)acetamide], the half-inhibitory concentration (IC50) was < 0.1 µM against JNK3, < 0.1 µM against JNK1 and 0.1 to 10 µM against JNK2.
For the molecule `O=C(Cc1ccc(F)c2cnccc12)Nc1scc(Br)c1-c1ncn[nH]1` [N-(4-bromo-3-(1H-1,2,4-triazol-5-yl)thiophen-2-yl)-2-(8-fluoroisoquinolin-5-yl)acetamide], the IC50 against JNK3, at JNK1 and against JNK2 was < 0.1 µM in each case.
For `O=C(Cc1ccc(F)c2ncccc12)Nc1scc(Br)c1-c1ncn[nH]1` [N-(4-bromo-3-(1H-1,2,4-triazol-5-yl)thiophen-2-yl)-2-(8-fluoroquinolin-5-yl)acetamide], the values for the IC50 against JNK3, at JNK1 and on JNK2 were < 0.1 µM, < 0.1 µM and 0.1 to 10 µM, respectively.
Turning to `O=C(Cc1cccc2nccn12)Nc1scc(Br)c1-c1ncn[nH]1` [N-(4-bromo-3-(1H-1,2,4-triazol-5-yl)thiophen-2-yl)-2-(imidazo[1,2-a]pyridin-5-yl)acetamide], the figures for the IC50 on JNK3, at JNK1 and against JNK2 were 0.1 to 10 µM, < 0.1 µM and 0.1 to 10 µM, respectively.
As to `O=C(Cc1cccc2cnccc12)Nc1scc(Br)c1-c1ncn[nH]1` [N-(4-bromo-3-(1H-1,2,4-triazol-5-yl)thiophen-2-yl)-2-(isoquinolin-5-yl)acetamide], the IC50 at JNK3, at JNK1 and on JNK2 was < 0.1 µM each time.
For the molecule `O=C(Cc1cccc2ccncc12)Nc1scc(Br)c1-c1ncn[nH]1` [N-(4-bromo-3-(1H-1,2,4-triazol-5-yl)thiophen-2-yl)-2-(isoquinolin-8-yl)acetamide], the results for the IC50 at JNK3, at JNK1 and against JNK2 were < 0.1 µM, < 0.1 µM and 0.1 to 10 µM, respectively.
With `O=C(Cc1cccc2ncccc12)Nc1scc(Br)c1-c1ncn[nH]1` [N-(4-bromo-3-(1H-1,2,4-triazol-5-yl)thiophen-2-yl)-2-(quinolin-5-yl)acetamide], the half-inhibitory concentration (IC50) at JNK3, at JNK1 and against JNK2 was < 0.1 µM each time.
Take `O=C(Cn1c(=O)ccc2cc(C(F)(F)F)ccc21)Nc1scc(Br)c1-n1nccn1` [N-(4-bromo-3-(2H-1,2,3-triazol-2-yl)thiophen-2-yl)-2-(2-oxo-6-(trifluoromethyl)quinolin-1(2H)-yl)acetamide]: the figures for the 50% inhibitory concentration (IC50) against JNK3, against JNK1 and on JNK2 were < 0.1 µM, < 0.1 µM and 0.1 to 10 µM, respectively.
In the case of `O=C(CN1C(=O)C(F)(F)c2ccccc21)Nc1scc(Br)c1-c1nnc[nH]1` [N-(4-bromo-3-(4H-1,2,4-triazol-3-yl)thiophen-2-yl)-2-(3,3-difluoro-2-oxoindolin-1-yl)acetamide], the IC50 on JNK3 is 0.1 to 10 µM; against JNK1, < 0.1 µM; against JNK2, 0.1 to 10 µM.
Turning to `O=C(Cc1cc(C(F)(F)F)c2cccnc2c1)Nc1scc(Br)c1-c1nnc[nH]1` [N-(4-bromo-3-(4H-1,2,4-triazol-3-yl)thiophen-2-yl)-2-(5-(trifluoromethyl)quinolin-7-yl)acetamide], the IC50 against JNK3, against JNK1 and at JNK2 was 0.1 to 10 µM throughout.
Consider `O=C(Cc1cc(C(F)(F)F)cc2ncccc12)Nc1scc(Br)c1-c1nnc[nH]1` [N-(4-bromo-3-(4H-1,2,4-triazol-3-yl)thiophen-2-yl)-2-(7-(trifluoromethyl)quinolin-5-yl)acetamide], for which the IC50 on JNK3, at JNK1 and against JNK2 was 0.1 to 10 µM in each case.
In the case of `O=C(Cc1cncc2ccccc12)Nc1scc(Br)c1-c1nnc[nH]1` [N-(4-bromo-3-(4H-1,2,4-triazol-3-yl)thiophen-2-yl)-2-(isoquinolin-4-yl)acetamide], the values for the IC50 against JNK3, against JNK1 and against JNK2 were < 0.1 µM, < 0.1 µM and 0.1 to 10 µM, respectively.
For `O=C(Cc1ccnc2ccccc12)Nc1scc(Br)c1-c1nnc[nH]1` [N-(4-bromo-3-(4H-1,2,4-triazol-3-yl)thiophen-2-yl)-2-(quinolin-4-yl)acetamide], the half-maximal inhibitory concentration (IC50) was < 0.1 µM against JNK3, < 0.1 µM on JNK1 and 0.1 to 10 µM on JNK2.
As to `O=C(CN1C(=O)CCc2ncccc21)Nc1scc(Br)c1-c1ncco1` [N-(4-bromo-3-(oxazol-2-yl)thiophen-2-yl)-2-(2-oxo-3,4-dihydro-1,5-naphthyridin-1(2H)-yl)acetamide], the concentration for half-maximal inhibition (IC50) at JNK3, on JNK1 and on JNK2 was < 0.1 µM in each case.
For the molecule `O=C(CN1C(=O)CCc2ncccc21)Nc1scc(Br)c1-c1nccs1` [N-(4-bromo-3-(thiazol-2-yl)thiophen-2-yl)-2-(2-oxo-3,4-dihydro-1,5-naphthyridin-1(2H)-yl)acetamide], the IC50 against JNK3 was < 0.1 µM; on JNK1, < 0.1 µM; against JNK2, 0.1 to 10 µM.
Consider `CN(C)CCn1cnc(-c2c(Cl)csc2NC(=O)Cn2c(=O)ccc3cc(C(F)(F)F)ccc32)n1` [N-(4-chloro-3-(1-(2-(dimethylamino)ethyl)-1H-1,2,4-triazol-3-yl)thiophen-2-yl)-2-(2-oxo-6-(trifluoromethyl)quinolin-1(2H)-yl)acetamide], for which the IC50 against JNK3, against JNK1 and against JNK2 was < 0.1 µM throughout.

For orientation: IC50 means the point on the concentration scale where inhibition reaches its midpoint.
